Experiments:
passive Arthus reaction [1] = test: Anti-inflammatory activity test, carried out as Example of Test 2 (Example of Test 3); type: in vivo, male guinea pigs of the Hartley strain; details: Table 22, i.v.
Protocol: (§1) Male guinea pigs of the Hartley strain weighing 200~250 g were used.
(§2) The anti-ovalbumin rabbit serum (PCA titer=1/80,000) and ovalbumin were used as the antiserum and antigen, respectively.
(§3) The passive Arthus reaction was performed according to the method of Katayama et al. [Katayama, S. et al., Arzeim-Forsch., 31, 1196 (1981)]. That is, guinea pigs were sensitized by an intravenous injection of said anti-ovalbumin rabbit serum (2.5 ml/kg). Thirty minutes after the injection, the Arthus reaction was induced by the intradermal injection of an antigen solution (0.05 ml) containing 0.10 mg of ovalbumin to the abdomen shaved the day before. Two hours after the antigen challenge, the area of intradermal bleeding was measured and used as the index representing the grade of inflammatory reaction. Test compounds were intravenously injected 30 min before the antigen injection. Four guinea pigs per each group were used.
(§4) The percent inhibi- is expressed as the bleeding area of the challenged site (%) of the animal group injected with each compound relative to that (100%) of the group administered with the physiological saline.
The anti-inflammatory activity test of compounds of the present invention was similarly carried out as in the case of Example of Test 2.

[2] = Simple acute toxicity test (intravenous injection); type: in vivo, male mice of ddY strain; details: i.v. (tail vein), ddY mice
Protocol: Example of Test 1 (Simple Acute Toxicity Test)
The simple acute toxicity test was carried out by an intravenous injection of compounds of the present invention.
Into the tail vein of male mice of ddY strain weighing 18~20 g which have been kept under the conditions at the temperature of 23°±1° C. and in the humidity of 55 ±7% were injected a solution of the compound of the present invention dissolved in the physiological saline containing the desired dose per 20 g body weighing 0.2 ml. Two dosages of which were 50 mg/kg and 500 mg/kg body weight were used.

passive Arthus reaction [3] = test: Anti-inflammatory activity test: passive Arthus reaction (Example of Test 2); type: in vivo, male guinea pigs of the Hartley strain; details: Table 21, 30 min before antigen
Protocol: Example of Test 2 (Anti-inflammatory Activity Test)
as §1
(2) Experimental Materials
as §2, §3, §4

| SMILES | Percent inhibition (passive Arthus reaction) (passive Arthus reaction [1]; 0.01 mg/kg) [%] | Percent inhibition (passive Arthus reaction) (passive Arthus reaction [1]; 0.1 mg/kg) [%] | Percent inhibition (passive Arthus reaction) (passive Arthus reaction [1]; 1 mg/kg) [%] | Mortality ([2]; 50 mg/kg) | Mortality ([2]; 500 mg/kg) | Percent inhibition (passive Arthus reaction) (passive Arthus reaction [3]; 1 mg/kg i.v.) [%] | Percent inhibition (passive Arthus reaction) (passive Arthus reaction [3]; 3 mg/kg i.v.) [%] | Percent inhibition (passive Arthus reaction) (passive Arthus reaction [1]; 0.001 (unit of dose not given)) [%] | Percent inhibition (passive Arthus reaction) (passive Arthus reaction [3]; 1 mg/kg i.v., 1 mg/kg) [%] | Percent inhibition (passive Arthus reaction) (passive Arthus reaction [3]; 3 mg/kg i.v., 3 mg/kg) [%] |
| --- | --- | --- | --- | --- | --- | --- | --- | --- | --- | --- |
| CCCOC1OC(CO)C(OC2OC(C)C(O)C(O)C2O)C(OC2OC(CO)C(OS(=O)(=O)[O-])C(OS(=O)(=O)[O-])C2OS(=O)(=O)[O-])C1NC(C)=O.[Na+].[Na+].[Na+] (stereo not drawn) [Compound 176] | 57.5 ± 14.7 | 83.9 ± 10.1 | 92.4 ± 3.8 | – | – | – | – | – | – | – |
| CC(=O)NC1C(O)CC(OC2C(O)C(CO)OC(OC3C(CO)OC(OCC4OC(O)C(O)C(O)C4O)C(NC(C)=O)C3OC3OC(C)C(O)C(O)C3O)C2O)(C(=O)[O-])OC1C(O)C(O)CO.[Na+] (stereo not drawn) [Compound 53] | – | – | – | 0/3 | 0/3 | 44.8 ± 15.0 | 58.7 ± 9.5 | – | – | – |
| CCCOC1OC(CO)C(OC2OC(C)C(O)C(O)C2O)C(OC2OC(CO)C(OS(=O)(=O)[O-])C(O)C2O)C1NC(C)=O.[Na+] (stereo not drawn) [Compound 190] | 79.3 ± 4.7 | 76.9 ± 4.1 | – | – | – | – | – | 12.7 ± 6.3 | – | – |
| CCCOC1OC(CO)C(OC2OC(C)C(O)C(O)C2O)C(OC2OC(CO)C(O)C(O)C2OS(=O)(=O)[O-])C1NC(C)=O.[Na+] (stereo not drawn) [Compound 188] | 57.2 ± 14.5 | 86.2 ± 1.7 | – | – | – | – | – | 84.2 ± 5.4 | – | – |
| CCCCCCCCCCCCCCCCCCCCCCCC(=O)NC(COC1OC(CO)C(OC2OC(CO)C(O)C(OC3(C(=O)[O-])CC(O)C(NC(C)=O)C(C(O)C(O)CO)O3)C2O)C(OC2OC(C)C(O)C(O)C2O)C1NC(C)=O)C(O)CCCCCCCCCCCCCCC.[Na+] (stereo not drawn) [Compound 46] | – | – | – | 0/3 | 0/3 | 25.6 ± 11.3 | 74.4 ± 16.3 | – | – | – |
| CCCOC1OC(CO)C(OC2OC(CO)C(O)C(OS(=O)(=O)[O-])C2O)C(OC2OC(C)C(O)C(O)C2O)C1NC(C)=O.[Na+] (stereo not drawn) [Compound 10] | – | – | – | 0/3 | 0/3 | 25.5 ± 17.4 | 64.8 ± 3.4 | – | – | – |
| CCCOC1OC(CO)C(OC2OC(C)C(O)C(O)C2O)C(OC2OC(CO)C(O)C(O)C2OCC(=O)[O-])C1NC(C)=O.[Na+] (stereo not drawn) [Compound 32] | – | – | – | 0/3 | 0/3 | 61.0 ± 4.2 | 57.4 ± 8.7 | – | – | – |
| COc1ccc(OC2OC(CO)C(OC3OC(CO)C(OS(=O)(=O)[O-])C(O)C3O)C(OC3OC(C)C(O)C(O)C3O)C2O)cc1.[Na+] (stereo not drawn) [Compound 144] | -15.2 ± 6.7 | 22.0 ± 30.1 | 23.9 ± 14.7 | – | – | – | – | – | – | – |
| CCCOC1OC(CO)C(OC2OC(C)C(O)C(O)C2O)C(OC2OC(CO)C(O)C(OCC(=O)[O-])C2O)C1NC(C)=O.[Na+] (stereo not drawn) [Compound 30] | – | – | – | 0/3 | 0/3 | 21.0 ± 5.9 | 15.4 ± 5.3 | – | – | – |
| COc1ccc(OC2OC(CO)C(OC3OC(CO)C(O)C(OS(=O)(=O)[O-])C3O)C(OC3OC(C)C(O)C(O)C3O)C2O)cc1.[Na+] (stereo not drawn) [Compound 143] | 84.1 ± 5.2 | 52.5 ± 12.2 | 70.1 ± 1.8 | – | – | – | – | – | – | – |
| CCCOC1OC(CO)C(OC2OC(CO)C(O)C(OC3(C(=O)[O-])CC(O)C(NC(C)=O)C(C(O)C(O)CO)O3)C2O)C(OC2OC(C)C(O)C(O)C2O)C1NC(C)=O.[Na+] (stereo not drawn) [Compound 121] | – | – | – | 0/3 | 0/3 | – | – | – | 42.1 ± 8.3 | 59.8 ± 5.3 |
| CCCOC1OC(CO)C(OC2OC(C)C(O)C(O)C2O)C(OC2OC(CO)C(O)C(O)C2OS(=O)(=O)[O-])C1NC(C)=O.[Na+] (stereo not drawn) [Compound 175] | 44.6 ± 20.1 | 62.5 ± 16.1 | 67.1 ± 4.4 | – | – | – | – | – | – | – |
| CCCOC1OC(CO)C(OC2OC(CO)C(O)C(OC3(C(=O)[O-])CC(O)C(NC(C)=O)C(C(O)C(O)CO)O3)C2O)C(OC2OC(C)C(O)C(O)C2O)C1NC(C)=O.[Na+] (stereo not drawn) [Compound 40] | – | – | – | 0/3 | 0/3 | – | – | – | 47.3 ± 7.4 | 63.5 ± 8.3 |
| CCCOC1OC(CO)C(OC2OC(C)C(O)C(O)C2O)C(OC2OC(CO)C(O)C(OCC(=O)[O-])C2OCC(=O)[O-])C1NC(C)=O.[Na+].[Na+] (stereo not drawn) [Compound 31] | – | – | – | 0/3 | 0/3 | 74.5 ± 6.7 | 15.9 ± 6.4 | – | – | – |
| CCCOC1OC(CO)C(OC2OC(C)C(O)C(O)C2O)C(OC2OC(CO)C(O)C(OS(=O)(=O)[O-])C2O)C1NC(C)=O.[Na+] (stereo not drawn) [Compound 26] | – | – | – | 0/3 | 0/3 | 75.5 ± 1.6 | 77.3 ± 8.0 | – | – | – |
| CCCOC1OC(CO)C(OC2OC(CO)C(O)C(OCC(=O)[O-])C2OCC(=O)[O-])C(OC2OC(C)C(O)C(O)C2O)C1NC(C)=O.[Na+].[Na+] (stereo not drawn) [Compound 18] | – | – | – | 0/3 | 0/3 | 75.7 ± 3.9 | 60.8 ± 9.8 | – | – | – |
| CCCOC1OC(CO)C(OC2OC(CO)C(O)C(OCC(=O)[O-])C2O)C(OC2OC(C)C(O)C(O)C2O)C1NC(C)=O.[Na+] (stereo not drawn) [Compound 17] | – | – | – | 0/3 | 0/3 | 45.5 ± 3.5 | 14.9 ± 14.5 | – | – | – |
| CCCOC1OC(CO)C(OC2OC(C)C(O)C(O)C2O)C(OC2OC(CO)C(O)C(OC3(C(=O)[O-])CC(O)C(NC(C)=O)C(C(O)C(O)CO)O3)C2O)C1NC(C)=O.[Na+] (stereo not drawn) [Compound 90] | – | – | – | 0/3 | 0/3 | – | – | – | 65.4 ± 8.5 | 69.6 ± 6.3 |
| CC(=O)NC1C(O)CC(OC2C(O)C(CO)OC(OC3C(CO)OC(OC4C(O)C(O)OC(CO)C4O)C(NC(C)=O)C3OC3OC(C)C(O)C(O)C3O)C2O)(C(=O)[O-])OC1C(O)C(O)CO.[Na+] (stereo not drawn) [Compound 62] | – | – | – | 0/3 | 0/3 | 41.9 ± 8.9 | 57.4 ± 7.3 | – | – | – |
| CCCOC1OC(CO)C(OC2OC(CO)C(OS(=O)(=O)[O-])C(OS(=O)(=O)[O-])C2OS(=O)(=O)[O-])C(OC2OC(C)C(O)C(O)C2O)C1NC(C)=O.[Na+].[Na+].[Na+] (stereo not drawn) [Compound 12] | – | – | – | 0/3 | 0/3 | 45.3 ± 6.7 | 67.8 ± 5.2 | – | – | – |
| CCCOC1OC(CO)C(OC2OC(C)C(O)C(O)C2O)C(OC2OC(CO)C(O)C(OS(=O)(=O)[O-])C2O)C1NC(C)=O.[Na+] (stereo not drawn) [Compound 189] | 73.6 ± 8.9 | 59.8 ± 9.7 | – | – | – | – | – | 90.9 ± 4.0 | – | – |
| CCCOC1OC(CO)C(OC2OC(C)C(O)C(O)C2O)C(OC2OC(CO)C(O)C(OC3(C(=O)[O-])CC(O)C(NC(C)=O)C(C(O)C(O)CO)O3)C2O)C1NC(C)=O.[Na+] (stereo not drawn) [Compound 123] | – | – | – | 0/3 | 0/3 | – | – | – | 76.8 ± 12.0 | 84.5 ± 5.1 |
| COc1ccc(OC2OC(CO)C(OC3OC(CO)C(O)C(OS(=O)(=O)[O-])C3OC(=O)C(C)(C)C)C(OC3OC(C)C(O)C(O)C3O)C2OC(=O)C(C)(C)C)cc1.[Na+] (stereo not drawn) [Compound 142] | -3.3 ± 2.7 | 57.6 ± 12.6 | 84.8 ± 4.6 | – | – | – | – | – | – | – |

— patent publication US5763413A, “Lewis-associated compound, process for producing the same, and anti-inflammatory” (MECT Corporation, priority 1993, dated 1998)
